The test system of one series is locomotor activity. Kind of series: Infrared activity monitoring (IRAM) in MPTP-lesioned monkeys. Format: in vivo, squirrel monkeys (Saimiri sciureus). As to the method:
Drug nepicastat or water (as placebo) was administered for 12 days following a minimum 2 day washout after L-Dopa dosing. Drug was administered twice daily at 10 am and 2 pm by oral gavage. Behavior was rated by IRAM and CRS. The CRS was conducted in the morning, 60 to 90 minutes after the 10 am dose of nepicastat on the last 5 days of drug treatment. Raters (one to three individuals) were blinded to the different treatment groups. IRAM assessments were preformed for 90 minutes immediately following drug administration at 2 pm on the last 5 days of drug treatment.
IRAM Locomotor activity was monitored every 10 minutes for a minimum of 90 minutes following each drug level. A higher rating is considered a faster (less parkinsonian) animal.
Statistical analysis consisted of descriptive statistics and graphing the mean of each 10 minutes data blocks of placebo and experimental drug at 1, 4, and 10 mg/kg. The graph was then examined to detect any trends. Further statistical analysis was not performed since no difference was determined from graphical analysis.

The target of a further series is T1, bovine DBH (Bos taurus, UniProt P15101).
T1 construct: Bovine DBH from adrenal glands was obtained from Sigma Chemicals; purchased Sigma Chemicals (St Louis, Mo.); host or cells: bovine adrenal glands
Kind of series: Bovine DBH inhibition kinetics, [14C]tyramine radioactive method. Format: biochemical. How it is done: Enzyme Assay by Radioactive Method. Enzymatic activity was assayed using [^14C]tyramine as substrate and a C18 column to separate the product. The assay was performed in […] volume containing 100 mM NaAc, pH 5.2, 10 mM fumaric acid, 0.5 μM CuSO4, 4 mM ascorbic acid, 0.1 mg/ml catalase and various concentrations of tyramine. The total counts of each reaction was ˜15,000 cpm. Bovine DBH (0.18 ng for each reaction) was mixed with tyramine and inhibitor in the reaction buffer at 37° C. The reaction was initiated by the addition of ascorbate/catalase mixture and was incubated at 37° C. for 30 minutes. The reaction was stopped by the addition of […] of 25 mM EDTA, 50 mM KH2PO4, pH 2.3. Entire mixture was loaded to a C18 light load column (two combined into one) that was pre-washed with MeOH and equilibrated with 50 mM KH2PO4, pH 2.3. Elution into scintillation vials was carried out with 1 ml of KH2PO4, pH 2.3 buffer twice, followed by 2 ml of the same buffer. ReadySafe scintillation fluid (16 ml) was added to the scintillation vials and the samples were counted for ^14C radioactivity.
Nepicastat concentrations of 0, 1, 2, 4, 8 nM were used to study inhibition kinetics at the following tyramine concentrations: 0.5, 1, 2, 3, 4 mM. […] Km′ was calculated from the slopes and Y intercepts and linear regression was used to obtain Ki value.

Series [1] relates to acoustic startle reactivity. Kind of series: Acoustic startle reactivity on day ten of chronic dosing. The conditions noted are these: day ten of b.i.d. oral dosing. How it is done: The effects of chronic dosing of nepicastat were examined. Between three and thirteen days prior to the first dosing day the rats were placed inside the startle apparatus and after a five minute acclimation period they were presented with a 118 dB noise burst on average once a minute (a variable inter-trial interval ranging between 30 and 90 seconds will be used) for 20 minutes. The startle responses were measured and a mean for the last twenty startle response was calculated for each rat.
Acoustic startle reactivity (a series of muscle contractions elicited by an intense burst of noise with a rapid onset), and pre-pulse inhibition (sensorimotor gating measured by analyzing any decrease in startle reactivity which occurs when a startling stimulus is immediately preceded by a non startling stimulus) were both measured in eight SR-Lab (San Diego Instruments, San Diego, Calif.) test stations. The rats were placed individually in a Plexiglas cylinder (10 cm diameter) which was housed in a ventilated sound-attenuating enclosure. Acoustic noise bursts (a broad band noise with a rise time and fall time of 1 msec) were presented via a speaker mounted 30 cm above the animal. Also, these speakers produced a 68 dB level of background noise throughout all test sessions. […] A decibel meter was used to calibrate the speakers in each of the eight test station to ±1% of the mean. Additionally, a SR-Lab calibrating instrument was used to calibrate each of the eight startle detection apparatuses to ±2% of the mean. Startle reactivity and pre-pulse inhibition tests were run concurrently immediately alter the motor activity test (about 4 hours and 40 minutes after the morning daily injection of nepicastat, and SKF-102698, and 10 minutes after a supplemental administration of clonidine and d-amphetamine on dosing day ten).

T1 sequence (P15101 whole entry): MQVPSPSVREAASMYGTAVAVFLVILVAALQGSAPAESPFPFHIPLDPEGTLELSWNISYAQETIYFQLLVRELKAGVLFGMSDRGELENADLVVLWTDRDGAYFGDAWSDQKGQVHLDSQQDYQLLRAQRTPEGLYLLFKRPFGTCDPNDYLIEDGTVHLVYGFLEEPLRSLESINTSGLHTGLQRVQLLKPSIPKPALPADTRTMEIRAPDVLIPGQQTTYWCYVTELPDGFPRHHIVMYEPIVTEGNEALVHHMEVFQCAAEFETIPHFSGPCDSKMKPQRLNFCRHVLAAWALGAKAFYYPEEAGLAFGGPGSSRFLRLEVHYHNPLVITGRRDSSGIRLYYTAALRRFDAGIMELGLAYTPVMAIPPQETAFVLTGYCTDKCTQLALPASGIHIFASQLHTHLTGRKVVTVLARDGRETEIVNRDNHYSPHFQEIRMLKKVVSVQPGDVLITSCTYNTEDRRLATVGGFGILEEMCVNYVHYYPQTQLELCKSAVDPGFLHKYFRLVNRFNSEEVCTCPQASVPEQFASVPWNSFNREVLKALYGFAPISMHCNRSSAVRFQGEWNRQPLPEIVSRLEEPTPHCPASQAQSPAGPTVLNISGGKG

Consider `Cl.NCc1c[nH]c(=S)n1[C@H]1CCc2c(F)cc(F)cc2C1` [nepicastat, (S)-5-Aminomethyl-1-(5,7-difluoro-1,2,3,4-tetrahydronaphth-2-yl)-2,3-dihydro-2-thioxo-1H-imidazole hydrochloride], for which the “activity monitoring compared to placebo” value in the series on locomotor activity (1 mg/kg/day) was “slower than placebo treatment”; in the series on locomotor activity (4 and 10 mg/kg/day, 10 to 90 minutes post-dosing), “no difference”. The type of inhibition entry at bovine DBH (nepicastat 1-8 nM, tyramine 0.5-4 mM) was “competitive with tyramine”. Also, the Ki on bovine DBH (vs tyramine, linear regression of apparent Km) is 4.7 ± 0.4 nM.
As for `Fc1cc(F)cc(Cn2cc[nH]c2=S)c1` [SKF 102698, reference compound], the “acoustic startle reactivity vs vehicle” value is recorded as “significantly lower startle response compared to cyclodextrin” in series [1] and “significantly reduced” in series [1] (listed as SKF102698).

These data come from US20090054403A1, “Treatment of Post-Traumatic Stress Disorder” (priority 2007, published 2009).
